Results: patent US20060063759A1, “Tricyclic steroid hormone nuclear receptor modulators” (priority 2002, published 2006)

Legend:
human MR = target: T1, human MR (Homo sapiens, UniProt P08235); assay: Mineralocorticoid Receptor Binding Assay ([3H]-aldosterone); settings: [3H]-aldosterone binding, human MR expressed in Sf9 cells; read-out: MR Ki
T1 construct: The full length human MR gene is cloned from a human kidney or human brain cDNA library; His tag from the pAcHLT vector (own knowledge); made in house; host or cells: Sf9 insect cells (baculovirus, pAcHLT transfer vector)
T1 sequence (P08235 1-984): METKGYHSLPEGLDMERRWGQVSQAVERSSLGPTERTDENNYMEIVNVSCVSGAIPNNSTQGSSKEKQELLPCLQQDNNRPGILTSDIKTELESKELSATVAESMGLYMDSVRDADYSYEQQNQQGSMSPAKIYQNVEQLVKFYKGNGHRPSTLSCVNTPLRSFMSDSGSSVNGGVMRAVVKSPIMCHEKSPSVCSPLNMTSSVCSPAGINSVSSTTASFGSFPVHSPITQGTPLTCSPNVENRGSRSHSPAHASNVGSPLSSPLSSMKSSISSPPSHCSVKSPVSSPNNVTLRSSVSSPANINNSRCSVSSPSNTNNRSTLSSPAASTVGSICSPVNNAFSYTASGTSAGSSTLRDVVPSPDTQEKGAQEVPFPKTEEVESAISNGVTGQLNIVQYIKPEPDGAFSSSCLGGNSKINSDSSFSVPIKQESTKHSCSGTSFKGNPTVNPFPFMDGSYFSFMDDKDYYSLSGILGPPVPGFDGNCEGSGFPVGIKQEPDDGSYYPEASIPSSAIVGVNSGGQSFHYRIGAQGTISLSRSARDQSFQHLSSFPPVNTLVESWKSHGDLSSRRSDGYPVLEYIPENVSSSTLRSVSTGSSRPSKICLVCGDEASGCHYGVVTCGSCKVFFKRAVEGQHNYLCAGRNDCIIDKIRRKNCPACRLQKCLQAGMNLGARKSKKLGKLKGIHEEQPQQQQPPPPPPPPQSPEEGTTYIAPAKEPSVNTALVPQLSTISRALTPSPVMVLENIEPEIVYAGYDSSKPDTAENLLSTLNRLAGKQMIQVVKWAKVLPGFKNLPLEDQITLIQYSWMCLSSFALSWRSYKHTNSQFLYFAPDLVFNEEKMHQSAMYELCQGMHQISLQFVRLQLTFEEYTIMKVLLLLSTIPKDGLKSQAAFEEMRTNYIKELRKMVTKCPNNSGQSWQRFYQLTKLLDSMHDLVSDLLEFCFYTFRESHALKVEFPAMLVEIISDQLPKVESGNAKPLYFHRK
Method in brief: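 Receptor source: freeze-thaw lysate of baculovirus-infected Sf9 cells carrying full-length human MR, 20-25 μg protein. Incubation ~16 h at 4 °C with shaking, pH 7.5 buffer containing 30 mM sodium molybdate and 10% glycerol.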

glucocorticoid receptor = target: T2, glucocorticoid receptor (Homo sapiens, UniProt P04150); assay: Glucocorticoid Receptor Binding Assay ([3H]-dexamethasone, A549 cell extract); settings: [3H]-dexamethasone binding, read-out: GR Ki
T2 construct: containing 50-200 ug of A549 cell extract and 1.86 nM [^3H]-dexamethasone; host or cells: A549 human lung epithelial cells (sonicated cell extract)
T2 sequence (P04150 1-777): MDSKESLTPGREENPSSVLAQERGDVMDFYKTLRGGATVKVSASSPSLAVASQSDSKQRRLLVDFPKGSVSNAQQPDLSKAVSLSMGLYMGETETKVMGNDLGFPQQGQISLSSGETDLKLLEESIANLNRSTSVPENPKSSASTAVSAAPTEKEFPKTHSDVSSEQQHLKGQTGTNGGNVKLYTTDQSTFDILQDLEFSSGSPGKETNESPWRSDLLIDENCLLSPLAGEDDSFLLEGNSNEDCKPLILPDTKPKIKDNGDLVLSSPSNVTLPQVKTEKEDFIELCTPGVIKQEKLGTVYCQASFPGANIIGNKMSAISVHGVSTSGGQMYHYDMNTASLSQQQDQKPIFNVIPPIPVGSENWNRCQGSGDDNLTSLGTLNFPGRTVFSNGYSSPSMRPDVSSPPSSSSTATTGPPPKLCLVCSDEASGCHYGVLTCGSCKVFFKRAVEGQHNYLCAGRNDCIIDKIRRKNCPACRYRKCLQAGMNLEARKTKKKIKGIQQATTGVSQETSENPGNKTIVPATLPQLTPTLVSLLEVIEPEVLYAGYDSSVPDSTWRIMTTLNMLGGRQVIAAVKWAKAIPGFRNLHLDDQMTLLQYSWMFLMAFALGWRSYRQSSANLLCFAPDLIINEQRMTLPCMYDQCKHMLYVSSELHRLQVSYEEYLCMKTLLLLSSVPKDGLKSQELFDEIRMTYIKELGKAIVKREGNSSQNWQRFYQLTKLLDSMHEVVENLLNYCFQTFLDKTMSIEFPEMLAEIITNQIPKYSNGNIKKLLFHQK
Method in brief: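 Displacement of [3H]-dexamethasone (1.86 nM) from glucocorticoid receptor in sonicated A549 lung epithelial cell extracts, 16 h at 4 °C, pH 7.2 molybdate-containing buffer. Bound radioactivity was scintillation-counted after charcoal/dextran stripping of free ligand.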

Row | Structure (SMILES) | Ki (human MR) | Ki (glucocorticoid receptor) | melting point
1 | Oc1ccc(C=C2c3ccccc3CCc3ccccc32)cc1 [Example 60, b-(10,11-Dihydro-dibenzo[a,d]cyclohepten-5-ylidenemethyl)-phenol] | < 500 nM | < 10000 nM | 56.9 °C
2 | Oc1ccc(C=C2c3ccccc3CCc3ccccc32)cc1O [Example 62, 4-(10,11-Dihydro-dibenzo[a,d]cyclohepten-5-ylidenemethyl)-benzene-1,2-diol] | < 500 nM | < 10000 nM | 138 °C
3 | CS(=O)(=O)Nc1cc(C=C2c3ccccc3CCc3ccccc32)ccc1O [Example 64, N-[5-(10,11-Dihydro-dibenzo[a,d]cyclohepten-5-ylidenemethyl)-2-hydroxy-phenyl]-methanesulfonamide] | < 500 nM | < 500 nM | 122.6 °C
4 | FC(F)Oc1cccc(C=C2c3ccccc3CCc3ccccc32)c1 [Example 65, 5-(3-Difluoromethoxy-benzylidene)-10,11-dihydro-5H-dibenzo[a,d]cycloheptene] | < 500 nM | < 10000 nM | 91.3 °C
5 | O=Cc1ccc(C=C2c3ccccc3CCc3ccccc32)cc1 [Example 68, 4-(10,11-Dihydro-dibenzo[a,d]cyclohepten-5-ylidenemethyl)-benzaldehyde] | < 500 nM | < 500 nM | 106.4 °C
6 | O=Cc1ccccc1C=C1c2ccccc2CCc2ccccc21 [Example 69, 2-(10,11-Dihydro-dibenzo[a,d]cyclohepten-5-ylidenemethyl)-benzaldehyde] | < 500 nM | < 500 nM | 198.9 °C
7 | O=Cc1cccc(C=C2c3ccccc3CCc3ccccc32)c1 [Example 70, 3-(10,11-Dihydro-dibenzo[a,d]cyclohepten-5-ylidenemethyl)-benzaldehyde] | < 500 nM | < 1000 nM | 86.7 °C
8 | FC(F)c1ccccc1C=C1c2ccccc2CCc2ccccc21 [Example 71, 5-(2-Difluoromethyl-benzylidene)-10,11-dihydro-5H-dibenzo[a,d]cycloheptene] | < 500 nM | < 500 nM | 13.3 °C
9 | FC(F)c1cccc(C=C2c3ccccc3CCc3ccccc32)c1 [Example 72, 5-(3-Difluoromethyl-benzylidene)-10,11-dihydro-5H-dibenzo[a,d]cycloheptene] | < 500 nM | < 10000 nM | 92.5 °C
10 | OCc1ccccc1C=C1c2ccccc2CCc2ccccc21 [Example 74, [2-(10,11-Dihydro-dibenzo[a,d]cyclohepten-5-ylidenemethyl)-phenyl]-methanol] | < 500 nM | < 500 nM | 121.8 °C
11 | N#Cc1ccccc1C=C1c2ccccc2CCc2ccccc21 [Example 80, 2-(10,11-Dihydro-dibenzo[a,d]cyclohepten-5-ylidenemethyl)-benzonitrile] | < 500 nM | < 500 nM | 185.4 °C
12 | N#Cc1cccc(C=C2c3ccccc3CCc3ccccc32)c1 [Example 81, 3-(10,11-Dihydro-dibenzo[a,d]cyclohepten-5-ylidenemethyl)-benzonitrile] | < 500 nM | < 10000 nM | 115.7 °C
13 | Nc1cccc(C=C2c3ccccc3CCc3ccccc32)c1 [Example 86, 3-(10,11-Dihydro-dibenzo[a,d]cyclohepten-5-ylidenemethyl)-phenylamine] | < 500 nM | < 500 nM | 204.3 °C
14 | Nc1ccccc1C=C1c2ccccc2CCc2ccccc21 [Example 87, 2-(10,11-Dihydro-dibenzo[a,d]cyclohepten-5-ylidenemethyl)-phenylamine] | < 500 nM | < 500 nM | 145.2 °C
15 | Nc1ccc(C=C2c3ccccc3CCc3ccccc32)cc1 [Example 88, 4-(10,11-Dihydro-dibenzo[a,d]cyclohepten-5-ylidenemethyl)-phenylamine] | < 500 nM | < 1000 nM | > 250 °C
16 | CCS(=O)(=O)Nc1cccc(C=C2c3ccccc3CCc3ccccc32)c1 [Example 91, Ethanesulfonic acid [3-(10,11-hydro-dibenzo[a,d]cyclohepten-5-ylidenemethyl)-phenyl]-amide] | < 500 nM | < 500 nM | 180.2 °C
17 | CC(C)S(=O)(=O)Nc1cccc(C=C2c3ccccc3CCc3ccccc32)c1 [Example 92, Propane-2-sulfonic acid [3-(10,11-dihydro-dibenzo[a,d]cyclohepten-5-ylidenemethyl)-phenyl]-amide] | < 500 nM | < 500 nM | 187.7 °C
18 | O=S(=O)(Nc1cccc(C=C2c3ccccc3CCc3ccccc32)c1)c1ccccc1 [Example 93, N-[3-(10,11-Dihydrodibenzo[a,d]cyclohepten-5-ylidenemethyl)-phenyl]-benzenesulfonamide] | < 500 nM | < 500 nM | 121.9 °C
19 | Cc1noc(C)c1S(=O)(=O)Nc1cccc(C=C2c3ccccc3CCc3ccccc32)c1 [Example 94, 3,5-Dimethyl-isoxazole-4-sulfonic acid [3-(10,11-dihydro-dibenzo[a,d]cyclohepten-5-ylidenemethyl)-phenyl]-amide] | < 500 nM | < 500 nM | 149.3 °C
20 | Cn1cnc(S(=O)(=O)Nc2cccc(C=C3c4ccccc4CCc4ccccc43)c2)c1 [Example 95, 1-Methyl-1H-imidazole-4-sulfonic acid [3-(10,11-dihydro-dibenzo[a,d]cyclohepten-5-ylidenemethyl)-phenyl]-amide] | < 500 nM | < 1000 nM | 257 °C
21 | CS(=O)(=O)Nc1ccc(C=C2c3ccccc3CCc3ccccc32)cc1 [Example 99, N-[4-(10,11-Dihydro-dibenzo[a,d]cyclohepten-5-ylidenemethyl)-phenyl]-methanesulfonamide] | < 500 nM | < 1000 nM | 210.7 °C
22 | CC(=O)Nc1ccc(C=C2c3ccccc3CCc3ccccc32)cc1 [Example 116, N-[4-(10,11-Dihydro-dibenzo[a,d]cyclohepten-5-ylidenemethyl)-phenyl]-acetamide] | < 500 nM | < 500 nM | 134.8 °C
23 | O=C(Nc1ccc(C=C2c3ccccc3CCc3ccccc32)cc1)c1ccncc1 [Example 117, N-[4-(10,11-Dihydro-dibenzo[a,d]cyclohepten-5-ylidenemethyl)-phenyl]-isonicotinamide] | < 500 nM | < 500 nM | 252.1 °C
